The source of these data is BindingDB's records for doi:10.1021/jm0702377 (University of Liverpool, 2007).

The target of this assay is T1, Alpha-methylacyl-CoA racemase (Rattus norvegicus, UniProt P70473).
T1 sequence (P70473 whole entry): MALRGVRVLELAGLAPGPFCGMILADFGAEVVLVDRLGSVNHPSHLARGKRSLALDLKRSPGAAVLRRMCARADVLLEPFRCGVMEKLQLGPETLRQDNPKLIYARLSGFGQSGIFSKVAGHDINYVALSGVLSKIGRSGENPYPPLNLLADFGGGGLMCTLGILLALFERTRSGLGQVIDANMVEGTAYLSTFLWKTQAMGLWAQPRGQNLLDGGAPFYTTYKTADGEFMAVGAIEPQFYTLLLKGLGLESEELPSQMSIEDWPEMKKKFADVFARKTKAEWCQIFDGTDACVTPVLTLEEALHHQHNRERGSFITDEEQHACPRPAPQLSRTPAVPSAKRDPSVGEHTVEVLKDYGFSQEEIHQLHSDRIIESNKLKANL
Briefly: AMACR Inhibition Assay. The conditions noted are these: pH 7; 37 °C. The method, then: AMACR activity was determined by monitoring the interconversion of the (25R/S)-isomer of THC-CoA. Reaction product was analyzed by resolution of (25S)-or (25R)-THC-CoA using HPLC, which was carried out with a reversed-phase C18-column and a linear gradient of methanol in potassium phosphate buffer (50 mM, pH 5.3). Kinetic parameters were determined using direct linear plot analysis.
By Ki is commonly meant a dissociation constant, usually derived from enzyme kinetics or from competition with a known ligand. For the compound `CCCCCCCCCCCCCC(C(=O)SCCNC(=O)CCNC(=O)C(O)C(C)(C)COP(=O)(O)OP(=O)(O)OC[C@H]1O[C@@H](n2cnc3c(N)ncnc32)[C@H](O)[C@@H]1OP(=O)(O)O)C(F)F` (some centres not stated) [2-Difluoromethylpentadecanoyl-CoA, 4], the inhibitory constant (Ki) was 20 µM.
As for `CCCCCCCCCCCCC(C(=O)SCCNC(=O)CCNC(=O)C(O)C(C)(C)COP(=O)(O)OP(=O)(O)OC[C@H]1O[C@@H](n2cnc3c(N)ncnc32)[C@H](O)[C@@H]1OP(=O)(O)O)C(F)(F)F` (some centres not stated) [2-Trifluoromethyltetradecanoyl-CoA, 3], the figure is 0.9 µM; as for `CCCCCCCCCCCCC(C)C(=O)SCCNC(=O)CCNC(=O)C(O)C(C)(C)COP(=O)(O)OP(=O)(O)OC[C@H]1O[C@@H](n2cnc3c(N)ncnc32)[C@H](O)[C@@H]1OP(=O)(O)O` (some centres not stated) [2-methylmyristoyl CoA, 22], 137 µM.
The same measure for `CCCCCCCCCCCCC[C@@H](F)[C@H](C)C(=O)SCCNC(=O)CCNC(=O)C(O)C(C)(C)COP(=O)(O)OP(=O)(O)OC[C@H]1O[C@@H](n2cnc3c(N)ncnc32)[C@H](O)[C@@H]1OP(=O)(O)O` (stereo partly drawn) [(2S,3R)-3-fluoro-2-methylhexadecanoyl-CoA, 6]: 2.3 µM.
With `CCCCCCCCCCCCC[C@H](F)[C@@H](C)C(=O)SCCNC(=O)CCNC(=O)C(O)C(C)(C)COP(=O)(O)OP(=O)(O)OC[C@H]1O[C@@H](n2cnc3c(N)ncnc32)[C@H](O)[C@@H]1OP(=O)(O)O` (stereo partly drawn) [((2R,3S)-3-Fluoro-2-methylhexadecanoyl-CoA, 5], the Ki turned out to be 1.3 µM.
As for `C[C@@H](CC[C@H](F)[C@@H](C)C(=O)SCCNC(=O)CCNC(=O)C(O)C(C)(C)COP(=O)(O)OP(=O)(O)OC[C@H]1O[C@@H](n2cnc3c(N)ncnc32)[C@H](O)[C@@H]1OP(=O)(O)O)[C@H]1CC[C@H]2[C@@H]3[C@H](O)C[C@@H]4C[C@H](O)CC[C@]4(C)[C@H]3C[C@H](O)[C@]12C` (some centres not stated) [THC-CoA Analogue, 7], the figure is 3.8 µM.
The same measure for `CCCCCCC(C)C(=O)SCCNC(=O)CCNC(=O)C(O)C(C)(C)COP(=O)(O)OP(=O)(O)OC[C@H]1O[C@@H](n2cnc3c(N)ncnc32)[C@H](O)[C@@H]1OP(=O)(O)O` (stereo partly drawn) [{[(2R,3S,4R,5R)-5-(6-amino-9H-purin-9-yl)-4-hydroxy-2-({[hydroxy({[hydroxy(3-hydroxy-2,2-dimethyl-3-{[2-({2-[(2-methyloctanoyl)sulfanyl]ethyl}carbamoyl)ethyl]carbamoyl}propoxy)phosphoryl]oxy})phosphoryl]oxy}methyl)oxolan-3-yl]oxy}phosphonic acid]: 45 µM.
